Data: publication PMC3916150 (Journal of medicinal chemistry, 2013)
Like-named read-outs stand apart in the source and are kept apart here.

How the values were obtained:
[1] = tested on: HuT-78 (human T-cell lymphoma) cells; experiment: Caspase-Glo 3/7 apoptosis assay in CTCL cells; assay type: cell-based; conditions: 100 nM
[2] = tested on: VDR-RXR; conditions: for inhibition of VDR activity compared with compound 1: both assays (10^-6 M and 10^-7 M), ER6 VDRE
[3] = molecular target: T1, human RXRα (Homo sapiens, UniProt P19793); experiment: RXRE-luciferase reporter transcription assay in HCT-116 cells; assay type: cell-based; conditions: 25 nM and 100 nM (both assays), HCT-116, Figure 5A and B
T1 sequence (P19793 1-462): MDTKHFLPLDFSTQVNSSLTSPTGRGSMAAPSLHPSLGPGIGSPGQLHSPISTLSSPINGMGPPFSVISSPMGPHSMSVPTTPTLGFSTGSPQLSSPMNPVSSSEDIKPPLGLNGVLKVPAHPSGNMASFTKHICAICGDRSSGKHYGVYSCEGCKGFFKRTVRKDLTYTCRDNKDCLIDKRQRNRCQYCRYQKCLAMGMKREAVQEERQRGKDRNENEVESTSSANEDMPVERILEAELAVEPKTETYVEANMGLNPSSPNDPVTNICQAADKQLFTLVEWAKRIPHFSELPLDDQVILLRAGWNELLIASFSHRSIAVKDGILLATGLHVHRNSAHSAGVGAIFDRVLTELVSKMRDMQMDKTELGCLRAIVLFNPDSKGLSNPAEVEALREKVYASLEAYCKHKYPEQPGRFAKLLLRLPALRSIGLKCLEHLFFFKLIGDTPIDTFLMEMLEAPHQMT

[4] = molecular target: T2, human RARα (Homo sapiens, UniProt P10276); experiment: RAR/RARE-luciferase reporter assay in HCT-116 cells; conditions: RARE-luciferase, versus all-trans retinoic acid
T2 sequence (P10276 1-462): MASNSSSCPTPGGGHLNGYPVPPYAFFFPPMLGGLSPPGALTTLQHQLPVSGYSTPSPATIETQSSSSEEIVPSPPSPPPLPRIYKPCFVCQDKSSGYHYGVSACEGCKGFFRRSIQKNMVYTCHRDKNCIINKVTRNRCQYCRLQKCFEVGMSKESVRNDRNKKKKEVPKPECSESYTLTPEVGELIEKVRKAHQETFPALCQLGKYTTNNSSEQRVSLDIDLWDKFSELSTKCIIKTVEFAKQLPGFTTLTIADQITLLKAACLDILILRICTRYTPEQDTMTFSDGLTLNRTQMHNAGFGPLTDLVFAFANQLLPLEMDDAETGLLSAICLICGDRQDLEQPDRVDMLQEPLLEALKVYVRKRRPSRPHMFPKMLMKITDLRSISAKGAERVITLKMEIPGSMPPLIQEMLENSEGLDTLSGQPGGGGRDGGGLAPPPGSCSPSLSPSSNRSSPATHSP

[5] = molecular target: T3, human RXR (Homo sapiens, UniProt P19793); experiment: RXR mammalian two-hybrid; conditions: for RXR binding and homodimerization (luciferase output) compared to compound 1: 24 h; for RXR-mediated transcriptional activity: data in Figures 4 and 5 (M2H and RXRE assays)
T3 sequence (P19793 1-462) 1: T1 sequence (P19793 1-462)
T3 sequence (P19793 1-462) 2: T1 sequence (P19793 1-462)

[6] = 100 nM analog + 1 nM 1,25D, Fig. 7A
[7] = 1,000 nM analog + 1 nM 1,25D, Fig. 7B
[8] = 100 nM analog + 1 nM 1,25D, Fig. 7C
[9] = 100 nM analog + 1 nM 1,25D, Fig. 7E
[10] = 1,000 nM analog + 1 nM 1,25D, Fig. 7F

| Molecule | apoptosis compared to ethanol vehicle control ([1]; 24 hours) | apoptosis compared to ethanol vehicle control ([1]; 48 hours) | ER6 VDRE-mediated activity versus 1,25D alone [2, 6] | ER6 VDRE-mediated activity versus 1,25D alone [2, 7] | RXRE-mediated transcriptional activity compared to compound 1 [3] | RAR agonist activity compared to bexarotene [4] | inhibition of VDR activity compared with compound 1 [2] | RXR binding and homodimerization (luciferase output) compared to compound 1 ([5]; 25 nM, HCT-116, Figure 4A) | RXR binding and homodimerization (luciferase output) compared to compound 1 ([5]; 100 nM, HCT-116, Figure 4B) | RXR-mediated transcriptional activity [5] | DR3 VDRE-mediated activity versus 1,25D alone [2, 8] | CYP24 natural promoter 1,25D-VDR transactivation versus 1,25D alone [2, 9] | CYP24 natural promoter 1,25D-VDR transactivation versus 1,25D alone [2, 10] | DR3 VDRE-mediated activity versus 1,25D alone ([2]; 1,000 nM analog + 1 nM 1,25D, Fig. 7D) |
| --- | --- | --- | --- | --- | --- | --- | --- | --- | --- | --- | --- | --- | --- | --- |
| Cc1cc2c(cc1C1(c3ccc(C(=O)O)cn3)CC1)C(C)(C)CCC2(C)C [Compound 9, 6-[1-(3,5,5,8,8-Pentamethyl-5,6,7,8-tetrahydronaphthalen-2-yl)cyclopropyl]nicotinic Acid, reference compound] | greater than the ethanol vehicle control | greater than the ethanol vehicle control | significantly lower | significantly lower | – | – | – | – | – | – | – | – | – | – |
| C=C(c1ccc(C(=O)O)cc1)c1cc2c(cc1C)C(C)(C)C=CC2(C)C [Compound 10, 4-[1-(3,5,5,8,8-Pentamethyl-2–5,8-dihydronaphthyl)vinyl]benzoic Acid, reference compound] | greater than the ethanol vehicle control | – | – | – | transcriptional activity consistently above the compound 1 level | greater RAR agonist activity | inhibited VDR activity less | – | – | – | – | – | – | – |
| Cc1cc2c(cc1-c1cc(/C=C/C(=O)O)ccc1O)C(C)(C)CCC2(C)C [Compound 11, (E)-3-(3-(1,2,3,4-tetrahydro-1,1,4,4,6-pentamethylnaphthalen-7-yl)-4-hydroxyphenyl)acrylic acid, reference compound] | – | – | significantly lower | significantly lower | – | slightly lower RAR-directed activity | – | greater activity than compound 1 | high activity compared with compound 1 | consistently more active | – | – | – | – |
| Cc1cc2c(cc1-c1cccc(/C=C/C(=O)O)c1)C(C)(C)CCC2(C)C [Compound 12, (E)-3-(3-(1,2,3,4-tetrahydro-1,1,4,4,6-pentamethylnaphthalen-7-yl)phenyl)acrylic acid, reference compound] | greater than the ethanol vehicle control | – | – | significantly lower | – | slightly lower RAR-directed activity | – | – | – | consistently lower RXR-mediated transcriptional activity | significantly lower | significant inhibiton | significant inhibiton | – |
| Cc1cc2c(cc1C1(c3ncc(C(=O)O)cn3)CC1)C(C)(C)CCC2(C)C [Compound 14] | greater than the ethanol vehicle control | greater than the ethanol vehicle control | – | significantly lower | – | greater RAR agonist activity | inhibited VDR activity less | – | – | – | – | – | – | – |
| Cc1ccc(/C=C/C(=O)O)cc1-c1cc2c(cc1C)C(C)(C)CCC2(C)C [Compound 15, (E)-3-(3-(1,2,3,4-tetrahydro-1,1,4,4,6-pentamethylnaphthalen-7-yl)-4-methylphenyl)acrylic acid] | – | – | significantly lower | significantly lower | – | greater RAR agonist activity | – | greater activity than compound 1 | high activity compared with compound 1 | consistently more active | – | – | – | significantly higher |
| Cc1cc2c(cc1-c1cc(/C=C/C(=O)O)ccc1C(F)(F)F)C(C)(C)CCC2(C)C [Compound 16, (E)-3-(4-(trifluoromethyl)-3-(1,2,3,4-tetrahydro-1,1,4,4,6-pentamethylnaphthalen-7-yl)phenyl)acrylic acid] | greater than the ethanol vehicle control | – | – | significantly lower | – | slightly lower RAR-directed activity | – | – | – | consistently lower RXR-mediated transcriptional activity | – | – | – | – |
| Cc1ccc(/C=C/C(=O)O)cc1-c1cc2c(cc1C)C(C)(C)C=CC2(C)C [Compound 17, (2E)-3-(3-(1,4-dihydro-1,1,4,4,6-pentamethylnaphthalen-7-yl)-4-methylphenyl)acrylic acid] | greater than the ethanol vehicle control | greater than the ethanol vehicle control | – | significantly lower | – | greater RAR agonist activity | inhibited VDR activity less | – | – | consistently lower RXR-mediated transcriptional activity | significantly lower | – | – | – |
| Cc1cc2c(cc1-c1cc(/C=C/C(=O)O)ccc1O)C(C)(C)C=CC2(C)C [Compound 18, (2E)-3-(3-(1,4-dihydro-1,1,4,4,6-pentamethylnaphthalen-7-yl)-4-hydroxyphenyl)acrylic acid] | greater than the ethanol vehicle control | greater than the ethanol vehicle control | – | significantly lower | – | approximately equal to bexarotene | – | approaching statistical significance | – | consistently more active | – | significant inhibiton | significant inhibiton | – |
| C=C(c1ccc(C(=O)O)c(F)c1)c1cc2c(cc1C)C(C)(C)C=CC2(C)C [Compound 19, 2-Fluoro-4-(1-(1,4-dihydro-1,1,4,4,6-pentamethylnaphthalen-7-yl)vinyl)benzoic acid] | greater than the ethanol vehicle control | greater than the ethanol vehicle control | – | significantly lower | – | greater RAR agonist activity | – | – | – | consistently lower RXR-mediated transcriptional activity | – | significant inhibiton | – | – |
| Methyl 2-(1-(1,2,3,4-tetrahydro-1,1,4,4,6-pentamethylnaphthalen-7-yl)vinyl)pyridine-5-carboxylate [Compound 13] | greater than the ethanol vehicle control | greater than the ethanol vehicle control | – | significantly lower | – | greater RAR agonist activity | inhibited VDR activity less | – | – | – | – | – | – | – |
